{"source": "PubChem BioAssay AID1259407", "about": "(Chemical Carcinogenesis Research Information System (CCRIS), 2018)", "system": "CCRIS mutagenicity, Ames/micronucleus/aberration tests", "assay": "CCRIS mutagenicity studies", "key": {"[1]": {"conditions": "Test System: AMES SALMONELLA TYPHIMURIUM, Strain/Indicator: TA98, Metabolic Activation: NONE, Method: PREINCUBATION"}, "[2]": {"conditions": "Test System: AMES SALMONELLA TYPHIMURIUM, Strain/Indicator: TA100, Metabolic Activation: RAT, LIVER, S-9, AROCLOR 1254, Method: STANDARD PLATE"}, "[3]": {"conditions": "Test System: AMES SALMONELLA TYPHIMURIUM, Strain/Indicator: TA1537, Metabolic Activation: RAT, LIVER, S-9, AROCLOR 1254, Method: STANDARD PLATE"}, "[4]": {"conditions": "Test System: AMES SALMONELLA TYPHIMURIUM, Strain/Indicator: TA98, Metabolic Activation: RAT, LIVER, S-9, AROCLOR 1254, Method: STANDARD PLATE"}, "[5]": {"conditions": "Test System: AMES SALMONELLA TYPHIMURIUM, Strain/Indicator: TA100, Metabolic Activation: NONE, Method: PREINCUBATION"}, "[6]": {"conditions": "Test System: AMES SALMONELLA TYPHIMURIUM, Strain/Indicator: TA100, Metabolic Activation: NONE, Method: STANDARD PLATE"}, "[7]": {"conditions": "Test System: AMES SALMONELLA TYPHIMURIUM, Strain/Indicator: TA1535, Metabolic Activation: NONE, Method: STANDARD PLATE"}}, "note": "Active and inactive are the calls of the source. No rule for the calls is given here.", "data": [{"smiles": "CNN", "values": [{"measurement": "mutagenic call", "setting": "End Point: IN VITRO CHROMOSOMAL ABERRATIONS, Test System: CHL CELLS, Metabolic Activation: RAT, LIVER, S-9, SODIUM PHENOBARBITAL AND 5,6-BENZOFLAVONE", "result": "active; positive (structural changes)"}, {"measurement": "mutagenic call", "setting": "[1]", "result": "inactive; negative"}, {"measurement": "mutagenic call", "setting": "Test System: AMES SALMONELLA TYPHIMURIUM, Strain/Indicator: TA98, Metabolic Activation: RAT LIVER S-9, PHENOBARBITAL AND BETA-NAPHTHOFLAVONE, Method: PREINCUBATION", "result": "inactive; negative"}, {"measurement": "mutagenic call", "setting": "Test System: AMES SALMONELLA TYPHIMURIUM, Strain/Indicator: TA100, Metabolic Activation: RAT LIVER S-9, PHENOBARBITAL AND BETA-NAPHTHOFLAVONE, Method: PREINCUBATION", "result": "inactive; negative"}, {"measurement": "mutagenic call", "setting": "Test System: AMES SALMONELLA TYPHIMURIUM, Strain/Indicator: TA102, Metabolic Activation: NONE, Method: PREINCUBATION", "result": "active; positive"}, {"measurement": "mutagenic call", "setting": "Test System: AMES SALMONELLA TYPHIMURIUM, Strain/Indicator: TA1535, Metabolic Activation: RAT LIVER S-9, PHENOBARBITAL AND BETA-NAPHTHOFLAVONE, Method: PREINCUBATION", "result": "active; positive"}, {"measurement": "mutagenic call", "setting": "Test System: AMES SALMONELLA TYPHIMURIUM, Strain/Indicator: TA1535, Metabolic Activation: RAT, LIVER, S-9, AROCLOR 1254, Method: PREINCUBATION", "result": "inactive; negative"}, {"measurement": "mutagenic call", "setting": "Test System: AMES SALMONELLA TYPHIMURIUM, Strain/Indicator: TA1537, Metabolic Activation: NONE, Method: PREINCUBATION", "result": "inactive; negative"}, {"measurement": "mutagenic call", "setting": "Test System: AMES SALMONELLA TYPHIMURIUM, Strain/Indicator: TA1537, Metabolic Activation: RAT LIVER S-9, PHENOBARBITAL AND BETA-NAPHTHOFLAVONE, Method: PREINCUBATION", "result": "inactive; negative"}, {"measurement": "mutagenic call", "setting": "Test System: AMES SALMONELLA TYPHIMURIUM, Strain/Indicator: TA1537, Metabolic Activation: RAT, LIVER, S-9, AROCLOR 1254, Method: PREINCUBATION", "result": "inactive; negative"}, {"measurement": "mutagenic call", "setting": "Test System: E. COLI, Strain/Indicator: WP2 UVRA, Metabolic Activation: NONE, Method: PREINCUBATION", "result": "active; positive"}, {"measurement": "mutagenic call", "setting": "Test System: E.COLI, Strain/Indicator: WP2UVRA, Metabolic Activation: RAT LIVER S-9, PHENOBARBITAL AND BETA-NAPHTHOFLAVONE, Method: PREINCUBATION", "result": "active; positive"}]}, {"smiles": "O=[N+]([O-])c1cccc2nc3c([N+](=O)[O-])cccc3nc12", "values": [{"measurement": "mutagenic call", "setting": "Test System: AMES SALMONELLA TYPHIMURIUM, Strain/Indicator: TA98(NR), Metabolic Activation: NONE, Method: PREINCUBATION", "result": "inactive; negative"}, {"measurement": "mutagenic call", "setting": "[1]", "result": "inactive; negative"}]}, {"smiles": "c1ccc2c(c1)ccc1nc3ccc4ccccc4c3cc12", "values": [{"measurement": "mutagenic call", "setting": "Test System: AMES SALMONELLA TYPHIMURIUM, Strain/Indicator: TA98, Metabolic Activation: GUINEA PIG, LIVER, S-9, 3-METHYLCHOLANTHRENE, Method: STANDARD PLATE", "result": "inactive; negative"}, {"measurement": "mutagenic call", "setting": "Test System: AMES SALMONELLA TYPHIMURIUM, Strain/Indicator: TA100, Metabolic Activation: GUINEA PIG, LIVER, S-9, 3-METHYLCHOLANTHRENE, Method: STANDARD PLATE", "result": "active; positive"}, {"measurement": "mutagenic call", "setting": "[2]", "result": "active; positive"}, {"measurement": "mutagenic call", "setting": "[3]", "result": "active; positive"}, {"measurement": "mutagenic call", "setting": "Test System: AMES SALMONELLA TYPHIMURIUM, Strain/Indicator: TA1537, Metabolic Activation: RAT, LIVER, S-9, PHENOBARBITAL, Method: STANDARD PLATE", "result": "active; positive"}, {"measurement": "mutagenic call", "setting": "Test System: AMES SALMONELLA TYPHIMURIUM, Strain/Indicator: TA1538, Metabolic Activation: RAT, LIVER, S-9, PHENOBARBITAL, Method: STANDARD PLATE", "result": "active; positive"}, {"measurement": "mutagenic call", "setting": "Test System: CHINESE HAMSTER V-79, Strain/Indicator: V-79/6-THIOGUANINE, Metabolic Activation: GUINEA PIG, LIVER, S-9, 3-METHYLCHOLANTHRENE", "result": "active; positive"}]}, {"smiles": "COc1cc2c(c3oc(=O)c4c(c13)CCC4=O)[C@@H]1CCO[C@@H]1O2", "values": [{"measurement": "mutagenic call", "setting": "[4]", "result": "active; positive"}, {"measurement": "mutagenic call", "setting": "[5]", "result": "active; positive"}, {"measurement": "mutagenic call", "setting": "[2]", "result": "active; positive"}, {"measurement": "mutagenic call", "setting": "Test System: AMES SALMONELLA TYPHIMURIUM, Strain/Indicator: TA100, Metabolic Activation: RAT, LIVER, S-9, PHENOBARBITAL, Method: PREINCUBATION", "result": "active; positive"}, {"measurement": "mutagenic call", "setting": "Test System: CHINESE HAMSTER V-79, Strain/Indicator: V-79/6-THIOGUANINE, Metabolic Activation: RAT, LIVER, S-9, PHENOBARBITAL, Method: STANDARD PLATE", "result": "active; positive"}]}, {"smiles": "Nc1cccc(-c2ccccc2)c1", "values": [{"measurement": "mutagenic call", "setting": "[1]", "result": "inactive; negative"}, {"measurement": "mutagenic call", "setting": "Test System: AMES SALMONELLA TYPHIMURIUM, Strain/Indicator: TA98, Metabolic Activation: RAT LIVER S-9, AROCLOR 1254, Method: PREINCUBATION", "result": "inactive; negative"}, {"measurement": "mutagenic call", "setting": "Test System: AMES SALMONELLA TYPHIMURIUM, Strain/Indicator: TA98, Metabolic Activation: RAT, LIVER, S-9, AROCLOR 1254 (4%), Method: STANDARD PLATE", "result": "active; positive"}, {"measurement": "mutagenic call", "setting": "[4]", "result": "inactive; negative"}, {"measurement": "mutagenic call", "setting": "[5]", "result": "inactive; negative"}, {"measurement": "mutagenic call", "setting": "Test System: AMES SALMONELLA TYPHIMURIUM, Strain/Indicator: TA100, Metabolic Activation: RAT LIVER S-9, AROCLOR 1254, Method: PREINCUBATION", "result": "inactive; negative"}, {"measurement": "mutagenic call", "setting": "[2]", "result": "inactive; negative"}]}, {"smiles": "CCOC(=O)/C=C/c1ccc([N+](=O)[O-])o1", "values": [{"measurement": "mutagenic call", "setting": "[1]", "result": "active; positive"}]}, {"smiles": "CC(=O)N(O)c1ccc(/C=C/c2ccccc2)cc1", "values": [{"measurement": "mutagenic call", "setting": "[1]", "result": "inactive; negative"}, {"measurement": "mutagenic call", "setting": "Test System: AMES SALMONELLA TYPHIMURIUM, Strain/Indicator: TA98, Metabolic Activation: RAT, LIVER, CYTOSOL, Method: PREINCUBATION", "result": "active; positive"}, {"measurement": "mutagenic call", "setting": "Test System: AMES SALMONELLA TYPHIMURIUM, Strain/Indicator: TA98, Metabolic Activation: RAT, LIVER, MICROSOMES, Method: PREINCUBATION", "result": "active; positive"}, {"measurement": "mutagenic call", "setting": "Test System: CHINESE HAMSTER V-79, Strain/Indicator: V-79/6-THIOGUANINE, Metabolic Activation: NONE, Method: STANDARD PLATE", "result": "active; positive"}]}, {"smiles": "Cc1ccc(NS(=O)(=O)c2cccc3cccnc23)cc1", "values": [{"measurement": "mutagenic call", "setting": "Test System: AMES SALMONELLA TYPHIMURIUM, Strain/Indicator: TA98, Metabolic Activation: NONE, Method: STANDARD PLATE", "result": "inactive; negative"}, {"measurement": "mutagenic call", "setting": "[4]", "result": "inactive; negative"}, {"measurement": "mutagenic call", "setting": "[6]", "result": "inactive; negative"}, {"measurement": "mutagenic call", "setting": "[2]", "result": "inactive; negative"}, {"measurement": "mutagenic call", "setting": "[7]", "result": "inactive; negative"}, {"measurement": "mutagenic call", "setting": "Test System: AMES SALMONELLA TYPHIMURIUM, Strain/Indicator: TA1535, Metabolic Activation: RAT, LIVER, S-9, AROCLOR 1254, Method: STANDARD PLATE", "result": "inactive; negative"}, {"measurement": "mutagenic call", "setting": "Test System: AMES SALMONELLA TYPHIMURIUM, Strain/Indicator: TA1537, Metabolic Activation: NONE, Method: STANDARD PLATE", "result": "inactive; negative"}, {"measurement": "mutagenic call", "setting": "[3]", "result": "inactive; negative"}]}, {"smiles": "CCOc1ccccc1C(N)=O", "values": [{"measurement": "mutagenic call", "setting": "End Point: IN VITRO CHROMOSOMAL ABERRATIONS, Test System: CHL/IU CELLS, Metabolic Activation: NONE", "result": "active; positive (structural changes)"}, {"measurement": "mutagenic call", "setting": "End Point: IN VITRO MICRONUCLEUS, Test System: CHL/IU CELLS, Metabolic Activation: NONE", "result": "active; positive"}]}, {"smiles": "c1ccc(-c2ccc(CCC3CO3)cc2)cc1", "note": "(stereo unspecified)", "values": [{"measurement": "mutagenic call", "setting": "[5]", "result": "inactive; negative"}, {"measurement": "mutagenic call", "setting": "[6]", "result": "active; positive"}, {"measurement": "mutagenic call", "setting": "[7]", "result": "inactive; negative"}]}]}
